This experiment relates to adiponectin promoter. The experiment is described as follows: cells. The format is cell-based, human. The following applies: for concentration at which the greatest transactivation was achieved: dose-response curve of commercial activator on the target promoter. An excerpt:
The following protocol has been followed for the purpose of analyzing the potential therapeutic activity against obesity, type 2 diabetes mellitus and atherosclerosis (ODA metabolic diseases) of the compounds 1-4: • generating cell lines which have stably integrated human promoters of key genes in the development of ODA diseases; • amplifying the human promoter sequence of the target genes starting from commercial human genomic DNA; • cloning the promoter into a suitable vector which allows knowing the transcriptional activity of the promoter sequence, using the luciferase gene as a reporter gene; • generating stable cell lines for each of the promoters cloned into the reporter vectors; • carrying out the screening test with the compounds of the invention on the stable cell lines; • suitably validating the effect obtained with a certain compound which can modify the transcriptional activity of the promoter.
The selected cell line is C2C12, corresponding to myoblasts from mouse muscle tissue.
The luciferase activity is measured according to the following protocol: • a) 50000 and 1200000 cells/well (and in duplicate) are seeded in a P24 plate. • b) After approximately 24 hours, the medium is removed from the cells and each well is washed with PBS 1x (because DMEM interferes in the measurement of the activity of the reporter gene) • c) 100 µl of luciferase developing reagent are added in each cell (Bright-GloTM Luciferase Assay system- Promega). This reagent carries the reporter gene substrate and luminescence is generated as the product of the enzymatic reaction. The cells which have acquired the reporter gene, and therefore the target promoter, will be luminescent upon being in the presence of said substrate. To record the measurement of luciferase activity, the plate is shaken for 30 seconds right after adding the developing reagent and after 2 minutes, the volume is collected and transferred to a 96-well plate (P96), which can be read in an illuminometer. • d) The suitable luminescence program is selected, such that the reading lasts 5 seconds per well, and the arbitrary luminescence units are recorded for each obtained clone or, in other words, for each stable cell line.
The reaction substrate is photosensitive, therefore it is important to keep the plate in darkness from the time the reagent is added until the luciferase activity is recorded or read in each experiment. Carrying out the screening test: The clones used in the screening are: C2C12 Adipo (adiponectin promoter), C2C12 UCP3 (UCP3 promoter), C2C12 AdR1 (adiponectin receptor 1 promoter) and C2C12 Nmu (neuromedin promoter).
Before any screening experiment, the suitable number of cells for carrying out such experiments must first be provided. To that end, 2 T75 are usually seeded (with approximately 1x10^6 cells in each bottle), such that after four days, the cells have reached confluence and are ready for the screening protocol detailed below to be carried out. • 1. Day 1: 30000 cells per well are seeded in white P96 plates; these plates allow amplifying the luminescence signal and improving the reading. The cells are grown in 100 µl of hygromycin-free medium. • 2. Day 2: 24 hours after the seeding, the cells are stimulated with compounds 1-4. Compounds 1-4 are assayed in duplicate at 1, 5 and 10 µg/ml concentrations, by means of the screening method shown in the following diagram: [formula] ? In the indicated positions, the baseline transcriptional activity of the promoters to be studied is recorded in the presence of the medium in which compounds 1-4 (vehicle) are dissolved. ? In the indicated positions, the transcriptional activity of the promoters to be studied is recorded in the presence of a known commercial activator of the target promoter. […]

Setting [1] is: Mus musculus, C2C12, 48 h, read-out: activation ratio.

With `COC(=O)c1ccnc(NCC=C(C)CCC=C(C)C)c1` [Compound 1, 2-(3,7-dimethyl-octa-2,6-dienylamino)-isonicotinic acid methyl ester], under setting [1], the fold induction at 0.5 µM was 1.67, the fold induction at 1 µM was 2.02, the fold induction at 5 µM was determined as 3.33 and the fold induction at 10 µM was determined as 4.07. Moreover, under setting [1], the fold induction at 25 µM was found to be 4.05, the fold induction at 50 µM is 3.92, the fold induction at 100 µM was 3.06 and the fold induction at 200 µM worked out at 2.57.

Regarding `O=c1c(-c2ccc(O)cc2)coc2cc(O)cc(O)c12` [Genistein, genistein, reference compound], the “concentration at which the greatest transactivation was achieved” value (from here on “concentration”) worked out at 20 µM. Besides, under setting [1], the fold induction at 1 µM stood at 1.47, the fold induction at 5 µM amounted to 2.25, the fold induction at 10 µM turned out to be 3.59 and the fold induction at 20 µM is 3.05. Moreover, under setting [1], the fold induction at 50 µM was found to be 1.97, the fold induction at 100 µM turned out to be 1.75 and the fold induction at 200 µM came to 1.59.

Turning to `O=c1c(-c2ccc(O)cc2)coc2cc(O)ccc12` [Daidzein, daidzein, reference compound], the “concentration” value came to 20 µM. Under setting [1], the fold induction at 1 µM came to 1.68, the fold induction at 5 µM is 3.03, the fold induction at 10 µM amounted to 3.76 and the fold induction at 20 µM turned out to be 4.04. Further, under setting [1], the fold induction at 50 µM worked out at 4.05 and the fold induction at 100 µM was 3.71.

Consider `CC(C)=CCNc1cccc(C(=O)O)c1` [Compound 2, 3-(3-methyl-but-2-enylamino)-benzoic acid], for which, under setting [1], the fold induction at 0.01 µM stood at 1.05, the fold induction at 1 µM came out at 1.69, the fold induction at 5 µM is 2.78 and the fold induction at 15 µM turned out to be 3.43. Under setting [1], the fold induction at 25 µM came out at 3.57, the fold induction at 50 µM is 3.66, the fold induction at 200 µM came to 3.04 and the fold induction at 400 µM was 1.81.

Regarding `CN(CCOc1ccc(CC2SC(=O)NC2=O)cc1)c1ccccn1` (stereo not drawn) [Rosiglitazone, reference compound], the “concentration” value was 20 µM.

`COC(=O)c1cccc(NCC=C(C)C)c1` [Compound 3, 3-(3-methyl-but-2-enylamino)-benzoic acid methyl ester]: under setting [1], the fold induction at 0.5 µM stood at 1.07, the fold induction at 1 µM was 1.26, the fold induction at 5 µM was determined as 1.98 and the fold induction at 10 µM was 1.85. Moreover, under setting [1], the fold induction at 25 µM amounted to 2.46, the fold induction at 50 µM was found to be 2.61, the fold induction at 100 µM came out at 2.34 and the fold induction at 200 µM was 1.92.

For the molecule `COC(=O)c1cccc(NCC=C(C)CCC=C(C)C)c1` [Compound 4, 3-(3,7-dimethyl-octa-2,6-dienylamino)-benzoic acid methyl ester], under setting [1], the fold induction at 0.5 µM came out at 2.32, the fold induction at 1 µM came out at 2.59, the fold induction at 5 µM is 3.53 and the fold induction at 10 µM was 3.71. Under setting [1], the fold induction at 25 µM worked out at 3.47, the fold induction at 50 µM was determined as 3.28, the fold induction at 100 µM came out at 2.53 and the fold induction at 200 µM was found to be 1.78.

For the origin of these results see EP2213286A1, “N-(PHENYL OR PYRIDYL)PRENYLAMINE DERIVATIVES FOR THE TREATMENT OF OBESITY, DIABETES AND CARDIOVASCULAR DISEASES” (Zeltia, S.A., priority 2009, dated 2010).
